In patent publication US7604947B2, “Detection and modulation of cancer stem cells” (Cornell Research Foundation, Inc., priority 2004, dated 2009):
“Also recorded” adds a separate entry of the source.

What was measured:
hRex1 = assay: RT-PCR of hRex1 expression after retinoic acid treatment; type: cell-based, human; conditions: MDA-MB-468 cells
human REX-1 protein [1] = assay: Western blot of human REX-1 protein after retinoic acid treatment, HEKa cells; type: cell-based; conditions: RA 1 μM for 48 hours
Description: (§1) The following human carcinoma and leukemia cell lines were maintained as directed by the ATCC: breast cancer cells: MCF-7, MDA-MB-231, MDA-MB-453, MDA-MB-468, SK-BR3 and HS578T; prostate cancer cells: LnCAP; skin cancer cells: SCC-12, SCC-13; kidney cancer cells: SK-39; bladder cancer cells: HTB1, HT1376, HTB9; oral cavity (head and neck) cancer: SCC-4, SCC-9, SCC-25, SCC-15; leukemia cells: HL-60, NB4 and NTERA2 teratocarcinoma cells. Normal human mammary (HMEC); renal proximal tubule epithelial cells (RPTE); prostate epithelial cells (PrEC), keratinocytes (NHEK) and lung (NHBE, SAEC) epithelial cells were grown as directed by the supplier (Cambrex, Walkersville, Md.). Normal human keratinocytes were also purchased from Cascade Biologics (Portland, Oreg.) and cultured as directed. Non-tumorous bladder cancer samples were provided by Dr. Stephen Boorjian (Weill Medical College, Cornell University, NY, N.Y.) and are as described in Boorjian, S, Tickoo, S K, Mongan, N P et al. Reduced Lecithin:Retinol Acyltransferase (LRAT) Expression Correlates with Increased Pathologic Tumor Stage in Bladder Cancer. Clinical Cancer Research 2004; 10:In press. Normal and All-trans-retinoic acid (RA) (Sigma, St. Louis, Mo.) was dissolved in ethanol and used at a final concentration of 20 nM or 1 μM as indicated in the descriptions of the figures. […]

human REX-1 protein [2] = assay: Western blot of human REX-1 protein after retinoic acid treatment, MDA-MB-468 cells; type: cell-based; conditions: RA 1 μM for 48 hours
Description: as §1

[3] = tested on: polyclonal rabbit anti-human REX-1 antibody; assay: Immunohistochemistry peptide competition of anti-REX-1 antibody staining in normal renal parenchyma; type: binding; conditions: 1 μg/mL free peptide, normal renal parenchyma sections
Experimental: Paraffin-embedded sections. Five micron tissue sections were cut from the patient blocks, and the sections were deparaffinized in Histoclear™(National Diagnostics, Atlanta, Ga.) followed by rehydration in a graded series of ethanol. Antigen retrieval was performed by heat with the Antigen Unmasking Solution (Vector Laboratories, Burlingame, Calif.) in a pressure cooker for 8 minutes. A 3% solution of H2O2 was used to quench the endogenous peroxidase activity (15 minute incubation). […] This was followed by incubation with the affinity-purified, polyclonal rabbit antihuman REX-1 primary antibody diluted 1:5 in 1.5% goat serum for 45-60 min. at room temperature, and then with 100 μL of horseradish peroxidase (HRP) conjugated goat anti-rabbit secondary antibody (SuperPicture, Zymed, San Francisco, Calif.) for 30 minutes at room temperature. Color was developed with the 3,3′-diaminobenzidine chromogen substrate, followed by counterstaining with hematoxylin (Vector). The negative control normal and tumor sections were treated identically to all other sections, with the exception that 1.5% normal goat serum was used in place of the primary antibody. […] All samples were analyzed using this identical protocol with the same reagents. The staining procedures were repeated at least three times with similar results.

Compound | expression of hRex1 following RA treatment (hRex1) | expression of hRex1 following RA treatment (hRex1; listed as retinoic acid) | level of human REX-1 protein following RA treatment (human REX-1 protein [1]) | level of human REX-1 protein following RA treatment (human REX-1 protein [2]) | REX-1 antibody staining in presence of free peptide [3]
CC1=C(/C=C/C(C)=C/C=C/C(C)=C/C(=O)O)C(C)(C)CCC1 [RA, All-trans-retinoic acid] | not reduced | does not decrease | did not alter; also recorded: unaltered | did not alter; also recorded: unaltered | 
SNNLKAHILTHANTNKNEQEGK (listed as Homo sapiens) [free human REX-1 peptide] |  |  |  |  | staining was eliminated
